Test: Human HepG2 cell viability assay in 384 well format
Type: toxicity, cell-based
Parameters: dose 125 nL, time 70.5 hour; cytotoxicity at 70.5 h: concentration not given beside the values
Conditions: HepG2 cells, read-out: Inhibition

Row | Structure (SMILES) | cytotoxicity at 70.5 h [%]
1 | O=C(Cc1ccon1)NC1CCCN(c2ccccc2F)C1=O (stereo unspecified) | 3.76
2 | NCc1ccnc(Oc2ccccc2)c1 | -8.2
3 | Cc1noc(C)c1CCc1nc(C2CCOC2)no1 (stereo unspecified) | -11.1
4 | CN1CC(C(=O)NCCc2ccc3c(c2)OCO3)CC1=O (stereo unspecified) | -8.14
5 | NC(=O)NC(CC(=O)N1CCc2sccc2C1)c1ccccc1F (stereo unspecified) | -17.5
6 | Cn1ncc2c1CCCC2NCc1cccnc1 (stereo unspecified) | -18.9
7 | CC(c1nnc(-c2ccccc2)o1)N1CCC(Nc2ccccc2)CC1 (stereo unspecified) | 8.58
8 | O=C(CNc1ccc(OCC2CCOCC2)cc1)NCc1ccco1 | -20.8
9 | CSc1ccc(OCCN2CCNC(=O)CC2)cc1 | -7.88
10 | COCCOc1ncccc1NCc1nc2ccccc2n1C | -15.1
11 | CC(C)(C)Oc1ccc(NCC(=O)NCc2ccco2)cc1 | -18.5
12 | Cc1noc(CCCc2nc(C3CCOC3)no2)n1 (stereo unspecified) | -18.7
13 | COc1ccccc1CN(Cc1nc(Cc2ccccc2)no1)C1CC1 | -10.7
14 | COCc1nn(Cc2ccc(Cl)s2)c(=O)o1 | -13.7
15 | CC(C)c1nc(C2CCCN2CCNS(C)(=O)=O)no1 (stereo unspecified) | -19.2
16 | CC(NCC(=O)N1CCc2sccc2C1)c1ccccc1F (stereo unspecified) | -15.8
17 | O=C1C(N2CCOCC2)CCCN1Cc1cccc(C(F)(F)F)c1 (stereo unspecified) | -17.4
18 | O=C1C(N2CC[C@@H](O)C2)CCCN1Cc1cccc(C(F)(F)F)c1 (stereo partly specified) | -18.9
19 | NCc1ccnc(Oc2ccc(F)cc2)c1 | -17
20 | CC(=O)N1CCCN(C(=O)NCCCNS(C)(=O)=O)CC1 | 9.32
21 | CC(=O)N1CCN(C(=O)NCCCN(C(C)C)S(C)(=O)=O)CC1 | -8.44
22 | Cc1cnn(C2CN(Cc3noc(C4CC4)n3)C2)c1 | -4.77
23 | CSCCC(NC(N)=O)C(=O)N1CCC(Cc2ccccc2)CC1 (stereo unspecified) | -3.12

Row | Structure (SMILES) | cytotoxicity at 70.5 h [%]
24 | COc1cccc(N2CCC(CNc3cc(C)nc4ncnn34)C2)c1 (stereo unspecified) | -1.68
25 | CC(NC(=O)C1(NC(=O)c2ccc3[nH]ncc3c2)CCCC1)C1CC1 (stereo unspecified) | -5.24
26 | N#Cc1cccc(S(=O)(=O)NC(=O)CCOCC(F)(F)F)c1 | -3.71
27 | COc1c(C(=O)N2CCC(CSc3ccccc3)C2)c(C)nn1C (stereo unspecified) | 1.84
28 | C[S+]([O-])CCNC(=O)Nc1cc(F)ccc1-n1cccn1 (stereo unspecified) | 15.9
29 | CS(=O)(=O)N1CCC(Nc2ccnc3ccc(Cl)cc23)CC1 | -3.71
30 | CN(CCc1ccc2c(c1)CCO2)C1CCS(=O)(=O)CC1 | 16.1
31 | Cc1ccc(S(C)(=O)=O)cc1C(=O)NS(C)(=O)=O | -7.69
32 | CCc1ccc(CC)c(NCC(=O)N2CCCC(NC(C)=O)C2)c1 (stereo unspecified) | -6.55
33 | CCC(C)NS(=O)(=O)Cc1cccc(NC(=O)C(C)C)c1 (stereo unspecified) | -2.19
34 | CC(=O)NC1CCCN(C(=O)CNc2cc(Cl)cc(Cl)c2)C1 (stereo unspecified) | -5.65
35 | COc1ccc(C)c(NC(=O)NCc2cccc(N(C)C)n2)c1 | -6.19
36 | COCc1c(Cl)cccc1NC(=O)NCc1cccc(N(C)C)n1 | 1.02
37 | COc1c(C(=O)N2CCC(COCc3ccccc3)C2)c(C)nn1C (stereo unspecified) | -0.0423
38 | CC(C)C(O)CCNC(=O)Nc1cc(F)ccc1-n1cccn1 (stereo unspecified) | 14.9
39 | Cc1cnn(C2CN(Cc3nnc(C4CC4)o3)C2)c1 | -10.1
40 | CC(C)c1nc(C2CCCN2c2ccnc(C3CCCC3)n2)no1 (stereo unspecified) | -6.75
41 | Cc1cnn(C2CN(Cc3noc(C)n3)C2)c1 | -6.5
42 | Cc1cc(=O)n2nc(Oc3cccc(I)c3)sc2n1 | -20.9
43 | CN(C)c1ncccc1CNC(=O)NCC(c1cccs1)N(C)C (stereo unspecified) | -23.8
44 | CN(C)CCn1c2c(ccc1=O)CCN(Cc1ccncc1)CC2 | -4.6
45 | Cc1noc(C)c1CN1CCn2cc(CN3CCOCC3)nc2C1 | -0.251
46 | COCCN(C)C(=O)c1nc2c(s1)CCCN2c1ccc(C)nn1 | -1.66

Row | Structure (SMILES) | cytotoxicity at 70.5 h [%]
47 | O=C(CC1CC1)N1C[C@H]2CCN[C@H]2C1 | -4.97
48 | CC(C)(C)CC(=O)N1C[C@H]2CCN[C@H]2C1 | -2.71
49 | O=C1CO[C@@H]2CN(S(=O)(=O)c3ccc(F)cc3)C[C@H]2N1 | 15.2
50 | COCC1COCCC12CCN(S(=O)(=O)c1ccc(C)cc1)CC2 (stereo unspecified) | -4.01
51 | CN(C)CCOCc1cncc2c1CCN(C(=O)c1cscn1)C2 | -3.85
52 | COc1cc(N2C[C@@H]3COC[C@@H](Cc4nc(C)no4)[C@@H]3C2)ncn1 | -7.51
53 | COCC(=O)N1CCC2(CC1)CN(CC1CC1)c1ccc(F)cc12 | 2.37
54 | CC1c2ncc(Cn3cccn3)n2CCN1S(=O)(=O)C1CC1 (stereo unspecified) | -5.83
55 | O=C(c1ccno1)N1CC[C@@H]2CN(C3CCOCC3)CCO[C@@H]2C1 | -5.94
56 | Cc1nc(-c2ccccc2)nc2c1CCN(Cc1nccn1C)CC2 | -10.4
57 | Cn1c2c(c(=O)n1C)CN(C(=O)c1cnccn1)CCC2 | -8.23
58 | CN(C)CC(=O)N1CCO[C@@H]2CC(COCc3ccncc3)C[C@H]21 (stereo partly specified) | -8
59 | Cn1nccc1-c1cnc2n1CCC21CCN(C(=O)C2(C)CC2)CC1 | -11
60 | COCCN1CCN(c2cc(OC)ncn2)Cc2ccc(C)nc21 | -10.4
61 | O=C(Cc1ccccn1)N1C[C@H]2CN(Cc3ccccn3)C[C@H]2C1 | -10
62 | CC(C)N(C)Cc1cc(=O)n2c(n1)CN(C(=O)c1ccc[nH]1)CCC2 | 0.329
63 | Cc1cccc(CN2C[C@@H]3CN(C(=O)C4CCOC4)C[C@@H]3C2=O)c1 (stereo partly specified) | 2.05
64 | O=C(C1CCOC1)N1C[C@H]2CN(Cc3cccc(F)c3)C(=O)[C@H]2C1 (stereo partly specified) | -0.77
65 | Cc1cccc(CN2CCC3(CC2)COC(COCC2CC2)C3)n1 (stereo unspecified) | -6.77
66 | COc1cc(N2CCN(CC3CC3)c3nc(C)ccc3C2)ncn1 | 0.313
67 | Cc1csc(CN2CCC3(CC2)COC(COc2ccccn2)C3)n1 (stereo unspecified) | -5.82
68 | Cn1nccc1-c1cnc2n1CCNC21CCN(C(=O)C2(C)CC2)CC1 | -9.28
69 | CCS(=O)(=O)N1CCc2c(COC)cncc2C1 | 17.2

Row | Structure (SMILES) | cytotoxicity at 70.5 h [%]
70 | CC(C)n1c2ccccc2c2c1cc(C(=O)N(C)C)n2S(C)(=O)=O | 13.1
71 | CNC(=O)NCC1CCC2(CCN(C(=O)c3ccccc3)CC2)CO1 (stereo unspecified) | -2.1
72 | CSc1ccc(CNC2CCCc3c2cnn3C)cc1 (stereo unspecified) | -8.39
73 | CC(C)(C)c1n[nH]cc1CNC1CCC(OCC(F)(F)F)CC1 (stereo unspecified) | -11.2
74 | CN(CCc1ccccn1)C(=O)c1cccs1 | -2.46
75 | CC(C)N(C)Cc1cncc2c1CCN(CC1CC1)C2 | 15.2
76 | Cc1cc(CN2C[C@H](OCC3CCOCC3)[C@H]3COC[C@H]32)oc1C | -0.082
77 | O=C(C1CCOCC1)N1C[C@H]2CCC[C@@]2(COc2cccnc2)C1 | -1.29
78 | CN(C)CCN1C(=O)CCCC12CCCN(C(=O)c1cc[nH]n1)C2 (stereo unspecified) | -4.9
79 | O=C(c1ccoc1)N1CCOC2(COCCN(CC3CC3)C2)C1 (stereo unspecified) | -1.92
80 | c1cc(CN2CC[C@@H]3CN(c4cnccn4)C[C@@H]3C2)ccn1 | -3.4
81 | O=C(c1cscn1)N1CCc2c(COCC3CC3)cncc2C1 | -1.4
82 | CN(C)Cc1nc2c(o1)CN(S(=O)(=O)c1cccs1)C2 | -9.46
83 | Cc1ccc(C(=O)N2CC[C@@H]3CN(C4CCOCC4)CCO[C@@H]3C2)o1 | -7.78
84 | O=S(=O)(c1cccs1)N1Cc2nc(CN3CCCCC3)oc2C1 | -8.94
85 | O=C(c1cccs1)N1CC[C@@H]2CN(C3CCOCC3)CCO[C@@H]2C1 | -6.31
86 | Cc1ccoc1C(=O)N1CC[C@@H]2CN(C3CCOCC3)CCO[C@@H]2C1 | -0.955
87 | Cc1nnc(N2CCCC3(CN(c4ccccn4)CCO3)C2)o1 (stereo unspecified) | 1.16
88 | CN1C(=O)CCC12CCN(c1ccc(C#N)cn1)CC2 | -8.99
89 | c1cnc(N2C[C@H]3CCN(Cc4ccncc4)C[C@H]3C2)nc1 | -7.09
90 | Cc1ccc(N2C[C@H]3CCN(Cc4ccncc4)C[C@H]3C2)nn1 | -9.91
91 | CCc1ccc(S(=O)(=O)N2Cc3c(CN(C)C)nn(C)c3C2)cc1 | -5.86
92 | O=C(c1ccno1)N1CCO[C@@H]2CC(COCc3ccccn3)C[C@H]21 (stereo partly specified) | -6.23

Row | Structure (SMILES) | cytotoxicity at 70.5 h [%]
93 | O=C(C1CCC1)N1C[C@@H]2CN(Cc3ccncc3)C(=O)[C@@H]2C1 | -12.5
94 | Cc1nc(N2CCOCC2)nc2c1CCN(Cc1nccn1C)CC2 | -11.2
95 | Cc1nc(C)c2c(n1)CCN(Cc1nccn1C)CC2 | -8.56
96 | CN(C)Cc1cc(=O)n2c(n1)CN(C(=O)c1ccc[nH]1)CCC2 | -2.94
97 | CCN1CCC(c2nc3ccc(NC4CCC4)cn3n2)CC1 | -4.48
98 | CS(=O)(=O)NCc1cc(=O)n2c(n1)CN(CC1CC1)CCC2 | 7.49
99 | CCCN1CCC(c2nc3ccc(-c4cccc(OC)c4)cn3n2)CC1 | -1.57
100 | CCCS(=O)(=O)N1CCC2(CC1)CN(CC1CCOC1)c1ccccc12 (stereo unspecified) | 3.95
101 | CCOC(=O)[C@]12CCCN(Cc3cccs3)C[C@H]1CN(CCOC)C2 | 1.08
102 | c1ccc(N2CC[C@H](OCC3CC3)[C@@H]2Cc2cccnc2)nc1 | -3.44
103 | c1cncc(OC[C@@]23CCC[C@@H]2CN(CC2CCOCC2)C3)c1 | -1.42
104 | CCOC(=O)[C@]12CCCN(Cc3cccs3)C[C@H]1CN(CC(C)C)C2 | -2.32
105 | CCN1CCC2(C1)CN(S(=O)(=O)c1cn(C)cn1)C2 | -5.09
106 | O=C(c1ccncc1)N1CC[C@@H]2CN(C3CCOCC3)CCO[C@@H]2C1 | -9.58
107 | CC(C)CN1CCC2(C1)CN(S(=O)(=O)c1cn(C)cn1)C2 | 4.36
108 | c1cnc(N2C[C@H]3CCN(CCN4CCCC4)C[C@H]3C2)cn1 | -5.43
109 | CC(C)N1CCO[C@H]2CN(Cc3cc[nH]n3)C[C@H]21 | -5.26
110 | COCCN1CCO[C@H]2CN(Cc3cccc(C)n3)C[C@H]21 | -5.32
111 | COCCN1CCN(c2ccc(C)nn2)Cc2ccc(C)nc21 | -3.87

— ChEMBL document CHEMBL3507680, “University of Dundee, Gates Library screen for HepG2 cell viability”
